{
  "source": "patent US20080242688A1",
  "about": "“Method 741” (ASTRAZENECA AB, priority 2007, published 2008)",
  "key": {"[1]": {"biological_target": "human recombinant α7 receptor (Homo sapiens, UniProt P36544)", "sequence (P36544 23-502)": "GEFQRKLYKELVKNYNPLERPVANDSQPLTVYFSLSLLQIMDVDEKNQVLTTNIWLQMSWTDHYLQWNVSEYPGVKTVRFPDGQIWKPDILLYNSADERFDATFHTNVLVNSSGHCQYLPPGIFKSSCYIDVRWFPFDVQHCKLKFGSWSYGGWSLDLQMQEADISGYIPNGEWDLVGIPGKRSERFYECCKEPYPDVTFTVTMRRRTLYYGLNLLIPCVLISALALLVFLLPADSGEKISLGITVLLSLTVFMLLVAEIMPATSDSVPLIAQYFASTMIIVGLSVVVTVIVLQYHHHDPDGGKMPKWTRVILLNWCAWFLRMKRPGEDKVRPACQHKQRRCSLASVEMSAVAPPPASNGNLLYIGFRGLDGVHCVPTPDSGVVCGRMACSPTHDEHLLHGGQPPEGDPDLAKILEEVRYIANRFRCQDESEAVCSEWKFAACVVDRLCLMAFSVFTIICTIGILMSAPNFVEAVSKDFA", "assay": "[3H]-AZ11637326 binding, α7-HEK", "design": "expressed in transfected cells"}, "[2]": {"biological_target": "T1, 5-HT3A (Homo sapiens, UniProt P46098)", "T1 construct": "expressed in transfected cells", "T1 sequence (P46098 24-478)": "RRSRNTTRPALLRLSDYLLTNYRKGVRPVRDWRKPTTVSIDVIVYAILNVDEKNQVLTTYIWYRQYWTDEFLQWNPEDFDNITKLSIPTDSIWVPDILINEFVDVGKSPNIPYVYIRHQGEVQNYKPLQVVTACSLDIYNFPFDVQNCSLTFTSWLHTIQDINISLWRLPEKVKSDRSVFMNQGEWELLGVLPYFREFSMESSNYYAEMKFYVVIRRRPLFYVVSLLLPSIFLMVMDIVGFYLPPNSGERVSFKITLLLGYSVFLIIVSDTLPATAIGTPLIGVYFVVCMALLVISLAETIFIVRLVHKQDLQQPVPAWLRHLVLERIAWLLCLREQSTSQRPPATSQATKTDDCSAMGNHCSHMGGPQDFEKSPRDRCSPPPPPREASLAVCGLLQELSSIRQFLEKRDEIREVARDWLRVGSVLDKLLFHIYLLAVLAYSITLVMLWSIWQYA", "assay": "Functional assays at recombinant human receptors", "type": "biochemical", "conditions": "functional potency, recombinant human receptors in vitro"}, "[3]": {"test_system": "guinea pigs", "assay": "Cardiac repolarisation in the anesthetised guinea pig", "type": "in vivo", "protocol": "Effects of AZD0328 on ventricular repolarisation and intracardiac conduction were investigated in 6 anesthetised and ventilated guinea pigs (Table 3). For the electrophysiological characterisation, monophasic action potentia MAP duration at 90% repolarisation (MAPD90), ventricular conduction velocity (MAP rise time), and atrioventricular (AV) conduction time were recorded during cardiac pacing. AZD0328 had dose-dependent effects on the electrophysiological activities in the guinea pig heart. At the highest dose, resulting in a total plasma concentration of 8.5 μM, MAPD90 and AV conduction time were prolonged by 20% and 13%, respectively. It is concluded that AZD0328 delayed ventricular repolarisation in the anesthetised guinea pig by 10% at a total plasma concentration of 2.4 μM."}, "[4]": {"assay": "Single dose PK/TK, rabbit", "conditions": "New Zealand White, in vivo", "source_text": "This section provides a summary of the pharmacokinetic and metabolism properties of AZD0328 derived from in vivo studies. […] The derived PK/TK parameters from these studies are presented in Table 4 for single dose studies (DMR4, 0619LR, 20030191PCR, DMO16, DMB10, DMW12, 50190, 0190DD and 03.330/1), and are presented in Table 5 multiple dose PK/TK studies (DMR4, 0612AR, DMB15, 50190, 0190DD and 0295AD)."}, "[5]": {"assay": "Maximum tolerated dose and 7 days oral toxicity in the dog", "type": "in vivo", "conditions": "both sexes, dog, in vivo, oral; dogs, single doses of 4.5 to 17 mg/kg", "protocol": "(§1) Single doses of 4.5 to 17 mg/kg were administrated to test AZD0328 to 2 male and 2 female dogs. […] Signs of nausea and at the higher doses vomiting was seen. In the 7 days repeated dose study 2 male and 2 female dogs were given 35 mg/kg per day. However, vomiting was the major clinical sign recorded during the study."}, "[6]": {"test_system": "dogs", "assay": "Maximum tolerated dose and 7 days oral toxicity in the dog", "type": "in vivo", "protocol": "as §1"}, "[7]": {"test_system": "rats", "assay": "Nicotine drug discrimination", "type": "in vivo, rat"}, "[8]": {"biological_target": "adrenergic α2B receptor (Homo sapiens, UniProt P18089)", "sequence (P18089 whole entry)": "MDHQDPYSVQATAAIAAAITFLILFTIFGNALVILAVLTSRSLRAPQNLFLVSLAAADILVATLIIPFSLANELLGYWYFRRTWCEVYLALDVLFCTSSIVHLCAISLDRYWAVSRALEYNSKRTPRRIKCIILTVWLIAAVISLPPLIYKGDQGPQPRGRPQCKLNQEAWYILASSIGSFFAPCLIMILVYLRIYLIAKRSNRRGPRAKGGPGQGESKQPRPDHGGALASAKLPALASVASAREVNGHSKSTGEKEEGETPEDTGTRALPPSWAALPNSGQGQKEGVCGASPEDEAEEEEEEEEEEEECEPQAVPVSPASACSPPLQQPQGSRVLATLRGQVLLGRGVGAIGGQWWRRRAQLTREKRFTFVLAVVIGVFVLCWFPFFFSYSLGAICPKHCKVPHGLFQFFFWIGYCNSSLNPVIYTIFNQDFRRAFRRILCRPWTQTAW", "assay": "Selectivity panel, radioligand binding", "conditions": "read-out: inhibition of specific radioligand binding", "protocol": "(§2) Secondary effects of AZD0328 on targets other than the α7 nicotinic acetylcholine receptor (nAChR) were investigated in vitro. Selectivity against a broad panel of 129 receptors, ion channels, nuclear hormone receptors, transporters and enzymes was tested using radioligand binding assays (Report no. GPW003)."}, "[9]": {"biological_target": "muscarinic M3 receptor (Homo sapiens, UniProt P20309)", "sequence (P20309 whole entry)": "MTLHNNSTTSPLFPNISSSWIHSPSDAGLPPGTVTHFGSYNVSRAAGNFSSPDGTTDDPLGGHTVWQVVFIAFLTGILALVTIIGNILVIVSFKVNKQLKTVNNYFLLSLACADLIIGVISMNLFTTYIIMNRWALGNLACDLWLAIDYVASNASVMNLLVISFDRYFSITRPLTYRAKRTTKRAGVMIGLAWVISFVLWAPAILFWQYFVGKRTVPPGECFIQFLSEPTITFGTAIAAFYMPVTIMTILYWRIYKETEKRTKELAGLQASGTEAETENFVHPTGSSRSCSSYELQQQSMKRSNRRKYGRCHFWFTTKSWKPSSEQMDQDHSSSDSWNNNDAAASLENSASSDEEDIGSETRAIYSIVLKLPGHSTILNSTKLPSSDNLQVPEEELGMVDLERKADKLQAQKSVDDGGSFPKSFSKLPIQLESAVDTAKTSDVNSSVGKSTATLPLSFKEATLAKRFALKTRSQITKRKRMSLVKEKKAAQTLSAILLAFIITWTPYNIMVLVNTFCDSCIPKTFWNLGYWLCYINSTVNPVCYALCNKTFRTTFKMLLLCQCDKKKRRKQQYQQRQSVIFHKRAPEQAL", "assay": "Selectivity panel, radioligand binding", "conditions": "read-out: inhibition of specific radioligand binding", "protocol": "as §2"}, "[10]": {"test_system": "central nicotinic receptors", "assay": "Selectivity panel, radioligand binding", "conditions": "10 μM", "protocol": "as §2"}, "[11]": {"biological_target": "muscarinic M5 receptor (Homo sapiens, UniProt P08912)", "sequence (P08912 whole entry)": "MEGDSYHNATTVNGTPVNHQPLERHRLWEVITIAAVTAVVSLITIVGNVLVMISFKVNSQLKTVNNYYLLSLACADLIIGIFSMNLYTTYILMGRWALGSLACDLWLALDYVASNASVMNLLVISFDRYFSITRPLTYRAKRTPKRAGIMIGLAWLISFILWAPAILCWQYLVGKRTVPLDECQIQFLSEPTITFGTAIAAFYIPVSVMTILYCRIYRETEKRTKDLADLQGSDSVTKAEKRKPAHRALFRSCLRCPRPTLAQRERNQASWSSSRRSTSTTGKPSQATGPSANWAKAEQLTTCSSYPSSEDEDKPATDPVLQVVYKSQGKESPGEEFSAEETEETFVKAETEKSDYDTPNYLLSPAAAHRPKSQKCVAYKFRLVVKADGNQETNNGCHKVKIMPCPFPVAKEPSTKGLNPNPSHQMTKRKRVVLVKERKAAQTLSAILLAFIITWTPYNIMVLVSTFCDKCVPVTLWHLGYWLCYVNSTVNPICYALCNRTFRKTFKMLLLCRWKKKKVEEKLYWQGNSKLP", "assay": "Selectivity panel, radioligand binding", "conditions": "read-out: inhibition of specific radioligand binding", "protocol": "as §2"}, "[12]": {"biological_target": "serotonergic 5-HT3 receptor (Homo sapiens, UniProt P46098)", "sequence (P46098 24-478)": "as the sequence (P46098 24-478) above", "assay": "Selectivity panel, radioligand binding", "conditions": "read-out: inhibition of specific radioligand binding", "protocol": "as §2"}, "[13]": {"test_system": "human hepatocytes", "assay": "Human hepatocyte incubations", "type": "in vitro ADME", "conditions": "four separate batches of human hepatocytes", "protocol": "Pyridinyl methylation of AZD0328 was a unique polar metabolite (M2) observed in dog hepatocytes. Other minor hydroxylation/oxidation and glucuronide conjugation products were detected in monkey, dog, rat, and guinea pig hepatocyte incubations and mini-pig hepatic microsome incubations. […] Analysis of plasma and urine samples from either orally or iv dosed rats confirmed N-oxide product of AZD0328 was a main product in the excretion and circulation. The percentage of AZD0328 N-oxide in the plasma from male rats was much higher than from females."}, "[14]": {"assay": "CNS side effects in rhesus monkeys", "conditions": "rhesus monkey, in vivo, po, read-out: NOAEL for decreased spatial working memory performance and CNS side effects (oral movements)", "protocol": "CNS side effects and decreased spatial working memory performance only occurred together in monkeys administered high dose AZD0328. The NOAEL for decreased spatial working memory performance and oral movements in rhesus monkeys was determined to be 0.016 mg/kg. Doses projected to produce therapeutic benefits in human subjects are those doses that were effective in functional assays across three species and were below the NOAEL for adverse effects on cognitive function and general behaviour in rhesus monkeys (<0.016 mg/kg). Doses projected to produce therapeutic benefits in human subjects therefore fall in the range 0.0001-0.01 mg/kg."}, "[15]": {"assay": "Allometric scaling / predicted human pharmacokinetics"}, "[16]": {"assay": "Ames test", "source_text": "The genotoxic potential of AZD0328 has been evaluated in the Ames test and in the Mouse lymphoma test. AZD0328 was not mutagenic in either of these tests."}, "[17]": {"conditions": "highest dose, total plasma concentration 8.5 μM"}, "[18]": {"conditions": "female, sc, rabbit 3F, DMB10, single subcutaneous 2.16 mg/kg (10 μmol/kg)"}, "[19]": {"conditions": "female, sc, rabbit 3F, DMB10, single subcutaneous 6.49 mg/kg (30 μmol/kg)"}, "[20]": {"conditions": "allometric scaling of in vivo data from rat and monkey"}},
  "note": "Where “and” joins values, the source holds several entries; their conditions need not be identical. Equal values may be shown once. Read-outs that look alike come from different tables or passages of the source.",
  "data": [
    {"compound": "c1cnc2c(c1)C[C@@]1(CN3CCC1CC3)O2", "note": "[AZD0328, (R)-Spiro[1-azabicyclo[2.2.2]octane-3,2′(3′H)-furo[2,3-b]pyridine]]", "values": [
      {"measurement": "Ki", "setting": "[1]", "value": 6.4, "unit": "nM"},
      {"measurement": "functional selectivity 5-HT3A>α7", "setting": "[2]", "value": 14, "unit": "fold"},
      {"measurement": "total plasma concentration", "setting": "[3]; highest dose, iv cumulative bolus", "value": 8.5, "unit": "µM"},
      {"measurement": "prolongation of AV conduction time", "setting": "[3]; [17]", "value": 13, "unit": "%"},
      {"measurement": "prolongation of MAPD90", "setting": "[3]; [17]", "value": 20, "unit": "%"},
      {"measurement": "NOAEL, guinea pig MAP assay", "setting": "[3]; in vivo", "value": 1, "unit": "µM"},
      {"measurement": "half-life", "setting": "[4]; rabbit, read-out: elimination half-life", "value": "< 5", "unit": "h"},
      {"measurement": "AUC", "setting": "[4]; [18]", "value": "1750 ng·h/mL and 8.1 µM·h"},
      {"measurement": "Cmax", "setting": "[4]; [18]", "value": "589 ng/mL and 2.72 µM"},
      {"measurement": "Tmax", "setting": "[4]; [18]", "value": "0.5 to 1.12", "unit": "h"},
      {"measurement": "half-life", "setting": "[4]; female, sc, rabbit 3F, DMB10, single subcutaneous 2.16 mg/kg (10 μmol/kg), read-out: T½ (converted)", "value": "2.71 ± 1.17", "unit": "h"},
      {"measurement": "AUC", "setting": "[4]; [19]", "value": "7340 ng·h/mL and 33.9 µM·h"},
      {"measurement": "Cmax", "setting": "[4]; [19]", "value": "1.75 ± 0.056", "unit": "µg/mL"},
      {"measurement": "Tmax", "setting": "[4]; [19]", "value": "0.267 to 1.08", "unit": "h"},
      {"measurement": "half-life", "setting": "[4]; female, sc, rabbit 3F, DMB10, single subcutaneous 6.49 mg/kg (30 μmol/kg), read-out: T½ (converted)", "value": "4.56 ± 1.36", "unit": "h"},
      {"measurement": "Cmax", "setting": "[5]", "value": "2.8 to 14", "unit": "µM"},
      {"measurement": "dose with slight QT prolongation (ECG)", "setting": "[6]", "value": "≥ 8.6", "unit": "mg/kg"},
      {"measurement": "dose up to which nicotine-like stimulus properties were lacking", "setting": "[7]; rat, sc", "value": "properties at doses up to 5.4 mg/kg"},
      {"measurement": "nicotine-like stimulus effects", "setting": "[7]; rats trained to discriminate 0.3 mg/kg nicotine, sc", "value": "lack of nicotine-like stimulus properties"},
      {"measurement": "rate of responding", "setting": "[7]; rats, doses up to 30 mg/kg sc", "value": "severely depressed the rate of responding"},
      {"measurement": "inhibition at 10 µM", "setting": "[8]", "value": "> 50", "unit": "%"},
      {"measurement": "inhibition at 10 µM", "setting": "[9]", "value": "> 50", "unit": "%"},
      {"measurement": "inhibition of specific radioligand binding", "setting": "[10]", "value": "> 50", "unit": "%"},
      {"measurement": "inhibition at 10 µM", "setting": "[11]", "value": "> 50", "unit": "%"},
      {"measurement": "inhibition at 10 µM", "setting": "[12]", "value": "> 50", "unit": "%"},
      {"measurement": "metabolites in human hepatocyte incubations", "setting": "[13]", "value": "no metabolites were detected"},
      {"measurement": "NOAEL", "setting": "[14]", "value": 0.016, "unit": "mg/kg"},
      {"measurement": "predicted human Vdss", "setting": "[15]; [20]", "value": 2.7, "unit": "L/kg"},
      {"measurement": "predicted human systemic clearance", "setting": "[15]; [20]", "value": 0.354, "unit": "L/h/kg"},
      {"measurement": "human predicted half-life", "setting": "[15]; one-compartment pharmacokinetic model", "value": 5.3, "unit": "h"},
      {"measurement": "mutagenicity", "setting": "[16]", "value": "not mutagenic"}
    ]}
  ]
}
